The source of these data is US5644053A, “Penam derivatives” (Hoffmann-La Roche Inc., priority 1994, dated 1997).

Assay [1] deals with β-lactamase (Citrobacter freundii, UniProt P05193). Particulars: read-out: IC50 C. freundii 1982 (β-lactamase inhibition).
Protocol: For this purpose, the corresponding strains are cultivated in Tryptic Soy Broth (Difco) and harvested by centrifugation in the last logarithmic growth phase (when necessary 50-100 mg/l of ampicillin are added to the medium towards the end of the log-phase in order to induce the β-lactamase). The thus-obtained bacterial mass is treated with 20 mM Tris-HCl buffer (pH 7.0); the cells are broken open with a French press while cooling. The mixture is centrifuged (20,000 r/min.) for 20-30 minutes and a clear crude extract is obtained.
(§4) The determination of the activity of the isolated β-lactamases can be carried out according to the method of O'-Callaghan, C. […] The requisite test batch contains per ml of water: 50 mM phosphate buffer (pH 7.0), 0.1 mM nitrocefin and sufficient enzyme (β-lactamase) to achieve a ΔA/min. of about 0.1.
(§5) The determination of the IC50 was effected by means of a graph.
Assay [2] has as its target β-lactamase. The assay is classed as biochemical. The following applies: read-out: IC50 E. coli CF 102 (β-lactamase inhibition).
Protocol: Various β-lactamases can be isolated from penicillin- or cephalosporin-resistant bacterial strains such as Klebsiella pneumonia NCTC 418, Proteus vulgaris 1028, Bacillus licheniformis 749/C, Escherichia coil SN01 and Citrobacter freundii 1203. For this purpose, the corresponding strains are cultivated in Tryptic Soy Broth (Difco) and harvested by centrifugation in the last logarithmic growth phase (when necessary 50-100 mg/l of ampicillin are added to the medium towards the end of the log-phase in order to induce the β-lactamase). The thus-obtained bacterial mass is treated with 20 mM Tris-HCl buffer (pH 7.0); the cells are broken open with a French press while cooling. The mixture is centrifuged (20,000 r/min.) for 20-30 minutes and a clear crude extract is obtained.
as §4, §5
The test system of another assay is Ps. aeruginosa. In words: In vitro activity of combinations with selected antibiotics against β-lactamase over-producer strains, Ps. aeruginosa. It counts as cell-based. The following applies: β-lactamase over-producer strain; combinations: constant inhibitor concentration 4 mg/l; unit assumed. The protocol:
(§1) In vitro activity of combinations of Example 5c with selected
(§2) antibiotics against β-lactamase over-producer strains
(§3) (constant inhibitor concentration: 4 mg/l)

Another assay concerns E. coli. In words: In vitro activity of combinations with selected antibiotics against β-lactamase over-producer strains, E. coli. It counts as cell-based. The following applies: β-lactamase over-producer strain; combinations: constant inhibitor concentration 4 mg/l; unit assumed. Here is the method: as §1, §2, §3
Another assay relates to E. cloacae. In words: In vitro activity of combinations with selected antibiotics against β-lactamase over-producer strains, E. cloacae. Particulars: β-lactamase over-producer strain; combinations: constant inhibitor concentration 4 mg/l; unit assumed. It counts as cell-based. The protocol: as §1, §2, §3
In the next assay the test system is C. freundii. In words: In vitro activity of combinations with selected antibiotics against β-lactamase over-producer strains, C. freundii. It counts as cell-based. Particulars: β-lactamase over-producer strain; combinations: constant inhibitor concentration 4 mg/l; unit assumed. Here is the method:
as §1, §2, §3

[3] abbreviates: isolated enzyme, nitrocefin substrate, pH 7.0, 37° C., 15 min pre-incubation.

Where two headings read alike, the source gives them in different places.

Chain of β-lactamase (Citrobacter freundii, UniProt P05193) (P05193 21-381): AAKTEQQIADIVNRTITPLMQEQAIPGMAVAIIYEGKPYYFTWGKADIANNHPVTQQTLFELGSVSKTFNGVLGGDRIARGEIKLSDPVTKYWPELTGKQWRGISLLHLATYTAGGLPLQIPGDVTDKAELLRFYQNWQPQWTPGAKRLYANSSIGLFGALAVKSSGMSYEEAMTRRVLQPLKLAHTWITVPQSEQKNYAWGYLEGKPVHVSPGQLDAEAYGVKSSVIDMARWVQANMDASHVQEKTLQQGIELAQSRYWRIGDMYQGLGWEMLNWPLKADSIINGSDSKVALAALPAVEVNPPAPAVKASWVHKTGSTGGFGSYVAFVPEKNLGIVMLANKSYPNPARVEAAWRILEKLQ

What is called IC50 is the concentration at which inhibition is half-maximal. Regarding `C[C@]1(/C=C/C(N)=O)[C@H](C(=O)O)N2C(=O)C[C@H]2S1(=O)=O` [6c (trans amide), Sodium (E)-(2S,3S,5R)-3-(2-carbamoyl-vinyl)-3-methyl-4.4.7-trioxo-4-thia-1-azabicyclo[3.2.0]heptane-2-carboxylate], the IC50 at β-lactamase [1] (setting [3]) was determined as 2250 nM; on β-lactamase [2] (setting [3]), 54 nM.

Consider `CC1(C)S[C@@H]2[C@H](NC(=O)[C@H](NC(=O)c3cnc4cccnc4c3O)c3ccccc3)C(=O)N2[C@H]1C(=O)O` [Apalcillin], for which the MIC Ps. aeruginosa in the assay with Ps. aeruginosa worked out at 64 µg/mL. Moreover, the MIC E. coli with E. coli was above 64 µg/mL. The MIC E. cloacae with E. cloacae is above 128 µg/mL. Moreover, the MIC C. freundii in the assay on C. freundii is above 128 µg/mL.

Turning to `CCN1CCN(C(=O)N[C@@H](C(=O)N[C@@H]2C(=O)N3[C@@H]2SC(C)(C)[C@@H]3C(=O)O)c2ccccc2)C(=O)C1=O` [Piperacillin], in the assay on Ps. aeruginosa, the MIC Ps. aeruginosa is above 64 µg/mL. Besides, in the assay with E. coli, the MIC E. coli was above 64 µg/mL. Moreover, the MIC E. cloacae with E. cloacae is above 128 µg/mL. For the same compound, the MIC C. freundii in the assay with C. freundii was above 128 µg/mL.

For `CC(C)(O/N=C(\C(=O)N[C@@H]1C(=O)N2C(C(=O)[O-])=C(C[n+]3ccccc3)CS[C@H]12)c1csc(N)n1)C(=O)O` [Ceftazidime], in the assay on Ps. aeruginosa, the MIC Ps. aeruginosa was 32 µg/mL. In addition, the MIC E. coli in the assay with E. coli worked out at 32 µg/mL. Also, the MIC E. cloacae in the assay with E. cloacae was above 64 µg/mL. Also, the MIC C. freundii in the assay with C. freundii is above 64 µg/mL.

Turning to `C[C@]1(/C=C\C(N)=O)[C@H](C(=O)O)N2C(=O)C[C@H]2S1(=O)=O` [6c (cis amide), Sodium (Z)-(2S,3S,5R)-3-(2-carbamoyl-vinyl)-3-methyl-4,4,7-trioxo-4-thia-1-aza-bicyclo[3.2.0]heptane-2-carboxylate], the values for the IC50 on β-lactamase [1] (setting [3]) and at β-lactamase [2] (pH 7) were 4340 nM and 130 nM, respectively.

For `CO/N=C(\C(=O)N[C@@H]1C(=O)N2C(C(=O)O)=C(CSc3nc(=O)c(=O)[nH]n3C)CS[C@H]12)c1csc(N)n1` [Ceftriaxone], the MIC Ps. aeruginosa with Ps. aeruginosa was above 64 µg/mL. The MIC E. coli with E. coli came to 16 µg/mL. Also, in the assay on E. cloacae, the MIC E. cloacae is above 64 µg/mL. In addition, in the assay with C. freundii, the MIC C. freundii is 64 µg/mL.

Take `C[C@]1(/C=C/C#N)[C@H](C(=O)O)N2C(=O)C[C@H]2S1(=O)=O` [5c (trans nitrile), Sodium (E)-(2S,3S,5R)-3-(2-cyanoethenyl)-3-methyl-4,4,7-trioxo-4-thia-1-aza-bicyclo[3.2.0]heptane-2-carboxylate]: the concentration for half-maximal inhibition (IC50) on β-lactamase [2] (pH 7) is 681 nM.

On to `CCOC(=O)/C=C/[C@@]1(C)[C@H](C(=O)O)N2C(=O)C[C@H]2S1(=O)=O` [2c (trans ethyl ester), Sodium (E)-(2S,3S,5R)-3-(2-ethoxycarbonyl-vinyl)-3-methyl-4,4,7-trioxo-4-thia-1-aza-bicyclo[3.2.0]heptane-2-carboxylate], for which the half-maximal inhibitory concentration (IC50) at β-lactamase [2] (pH 7) came to 456 nM.

For `C[C@]1(/C=C\C#N)[C@H](C(=O)O)N2C(=O)C[C@H]2S1(=O)=O` [5c (cis nitrile), Sodium (Z)-(2S,3S,5R)-3-(2-cyanoethenyl)-3-methyl-4,4,7-trioxo-4-thia-1-aza-bicyclo [3.2.0]heptane-2-carboxylate], on β-lactamase [2] (pH 7), the 50% inhibitory concentration (IC50) was found to be 126 nM.

On to `C[C@]1(Cn2ccnn2)[C@H](C(=O)O)N2C(=O)C[C@H]2S1(=O)=O` [Tazobactam], for which the results for the IC50 on β-lactamase [1] (pH 7) and at β-lactamase [2] (setting [3]) were 900 nM and 15 nM, respectively.
